{"source": "patent US10201564B2", "about": "“Methods of using inhaled nitric oxide gas for treatment of acute respiratory distress syndrome in children” (Mallinckrodt Hospital Products IP Limited, priority 2014, dated 2019)", "assay_type_in_all_cases": "in vivo, human", "key": {"[1]": {"tested_on": "pediatric subjects with acute hypoxemic respiratory failure (AHRF)", "assay": "Pediatric AHRF study: percent methemoglobin levels", "conditions": "5 ppm", "procedure": "(§1) Standardized ventilatory management and weaning procedures were used. Ventilatory management was used based on an “open lung approach” using positive end-expiratory pressure (PEEP) to increase lung volume and limiting tidal volumes to reduce plateau pressures. Subjects received nitric oxide for inhalation at 5 ppm or placebo (100% Grade 5 nitrogen gas) into the inspiratory limb of the ventilator circuit using a blinded version of the INOvent® delivery system. The subjects were treated until Day 28 or extubation, whichever occurred first. Subjects were assessed daily using a spontaneous breathing trial, according to the institution's standard of care. Arterial blood gases (ABG), ventilator settings, methemoglobin, oxygenation index, systolic blood pressure, diastolic blood pressure, Pediatric Risk of Mortality (PRISM) III score, and subject positioning (prone or supine) were performed/recorded at specified times during the study. Selected centers also performed plasma cytokine assays, bronchoalveolar lavage fluid (BALF) assays, and a 6-month follow-up assessment.\n(§2) The following assessments were made at baseline: arterial blood gases, ventilator settings, methemoglobin, prone position, PRISM III score, oxygenation index, systolic and diastolic blood pressure, bronchoalveolar lavage fluid assay and plasma cytokine.\nThe following assessments were made at 4 hours±1 hour after the start of therapy: arterial blood gases, ventilator settings and methemoglobin.\n(§3) The following assessments were made at 24 hours±2 hours after the start of therapy: arterial blood gases, ventilator settings, methemoglobin, systolic and diastolic blood pressure and plasma cytokine.\nPercent methemoglobin levels were obtained at baseline and at Hours 4 and 24. […] These levels were well below levels that would have necessitated discontinuation of treatment."}, "[2]": {"tested_on": "patients with moderately severe Acute Lung Injury (ALI)", "assay": "Adult ALI/ARDS study, 5 ppm iNO versus placebo: efficacy and respiratory parameters", "conditions": "for mortality, benefit versus control: adults", "procedure": "A large-scale, randomized, blinded, placebo-controlled study was carried out in the Intensive Care Units (ICUs) of 46 US hospitals to evaluate the efficacy of low-dose (5 ppm) iNO in 385 patients with moderately severe Acute Lung Injury (ALI). The primary endpoint of this study was number of days alive and off assisted breathing.\nPatients had acute lung injury (ALI), defined by a modification of American-European Consensus Conference criteria (PaO2/inspired oxygen concentration [FiO2] ratio of ≤250 mm Hg), due to causes other than severe sepsis. Patients with evidence of non-pulmonary system failure at the time of randomization and sepsis-induced ARDS were excluded. Patients were also excluded if they had sustained hypotension requiring vasopressor support, hemodynamic profiles supporting severe sepsis, severe head injury, severe burns, or evidence of other significant organ system dysfunction at baseline.\nPatients were randomly assigned to receive either inhaled placebo gas (nitrogen) or 5 ppm of iNO (INO Therapeutics Inc., Port Allen, La.). All patients, healthcare professionals, and investigators were blinded to the assigned treatment. Inhaled NO was administered via INOvent® delivery system (Datex-Ohmeda, Madison, Wis.) that blended treatment gas (nitrogen or NO at 100-ppm balance nitrogen) 1:20 with ventilator gases to achieve a target ppm value in the inspiratory limb of the ventilator.\nAll patients using the iNO delivery system received mechanical ventilatory support. Treatment continued with active or placebo gas until one of the following criteria were met: [1] end of trial (28 days); [2] death; or [3] adequate oxygenation (arterial oxygen saturation by pulse oximetry [SpO2]≥92% or PaO2 of ≥63 mm Hg) without treatment gas at ventilator settings of FiO2≤0.4 and positive end-expiratory pressure (PEEP) of ≤5 cm H2O. Decreases in treatment gas continued in 20% decrements (titrated down by 1 ppm for inhaled NO) every 30 minutes until either the treatment gas concentration reached 0% or oxygenation criteria were not satisfied. If oxygenation criteria were not met, treatment gas concentration was titrated up until they were again achieved. Increments of upward titration were determined by the clinician, based on degree of arterial desaturation.\nBaseline oxygenation measures included PaO2, arterial partial pressure of CO2 (PaCO2), SpO2, FiO2, PEEP, PaO2/FiO2 ratio, […], tidal volume, and mean airway pressure. Respiratory parameters (FiO2, PEEP, and PaO2/FiO2 ratio) were recorded on case report forms every 12 hours during mechanical ventilation.\nBetween-group differences in baseline clinical and demographic characteristics were assessed with the Fisher's exact test and the chi-square test for categorical variables and with the Wilcoxon rank sum test for continuous variables. Baseline oxygenation and respiratory/oxygenation parameters in the two groups were compared using Wilcoxon rank sum tests. The areas under the curve (AUCs) of FiO2, PEEP, and PaO2/FiO2 ratio were calculated using the trapezoidal rule. The null hypothesis that the respective AUCs were normally distributed was rejected employing the Shapiro-Wilk test. A Wilcoxon rank sum test was utilized to assess the differences in each median AUC between treatment groups. A p value <0.05 was considered significant."}, "[3]": {"tested_on": "pediatric subjects with acute hypoxemic respiratory failure (AHRF)", "assay": "Pediatric AHRF study: vital signs (systolic and diastolic blood pressure)", "conditions": "5 ppm", "procedure": "as §1, §2, §3\nMean systolic and diastolic blood pressure increased slightly from baseline in both groups at 24 hours. Descriptive statistics for systolic and diastolic blood pressure, which were taken both at baseline and at 24 hours, are summarized Table 26."}}, "data": [{"smiles": "[N]=O", "note": "[Nitric Oxide, nitric oxide]", "values": [{"measurement": "Methemoglobin level, Mean (SD)", "setting": "[1]; 4 Hours", "result": "0.64 (0.33) %"}, {"measurement": "Methemoglobin level, Median", "setting": "[1]; 4 Hours", "result": 0.8, "unit": "%"}, {"measurement": "Methemoglobin level, Mean (SD)", "setting": "[1]; 24 Hours", "result": "0.52 (0.37) %"}, {"measurement": "Methemoglobin level, Median", "setting": "[1]; 24 Hours", "result": 0.5, "unit": "%"}, {"measurement": "Methemoglobin level, Mean (SD)", "setting": "[1]; Baseline", "result": "0.56 (0.35) %"}, {"measurement": "Methemoglobin level, Median", "setting": "[1]; Baseline", "result": 0.5, "unit": "%"}, {"measurement": "Percent methemoglobin levels versus placebo group", "setting": "[1]; at most time points, in words", "result": "equal to or less than"}, {"measurement": "percent methemoglobin levels", "setting": "[1]; baseline, Hours 4 and 24, in words", "result": "within normal limits"}, {"measurement": "days alive and meeting oxygenation criteria for extubation, benefit versus control", "setting": "[2]; 5 ppm iNO vs nitrogen gas, intent-to-treat", "result": "no significant benefit"}, {"measurement": "mortality, benefit versus control", "setting": "[2]; 5 ppm iNO vs nitrogen gas, intent-to-treat, listed as Inhaled NO", "result": "did not improve"}, {"measurement": "mortality, benefit versus control", "setting": "[2]; 5 ppm iNO vs nitrogen gas, intent-to-treat, listed as iNO", "result": "no significant benefit"}, {"measurement": "aggregate per-patient changes from baseline in supplemental oxygen, PEEP, or PaO2/FiO2 ratio, between groups", "setting": "[2]; during mechanical ventilation, iNO vs placebo", "result": "no significant differences"}, {"measurement": "partial pressure of arterial oxygen (PaO2)", "setting": "[2]; initial 24 hours of treatment, resolved by 48 hours, p<0.05", "result": "significant increase"}, {"measurement": "days alive and off assisted breathing, benefit versus control", "setting": "[2]; primary endpoint, 5 ppm iNO vs nitrogen gas, intent-to-treat", "result": "no significant benefit"}, {"measurement": "Diastolic BP, Mean (SD)", "setting": "[3]; 24 Hours", "result": "56.0 (12.7) mmHg"}, {"measurement": "Diastolic BP, Median", "setting": "[3]; 24 Hours", "result": 54.5, "unit": "mmHg"}, {"measurement": "Systolic BP, Mean (SD)", "setting": "[3]; 24 Hours", "result": "97.9 (21.7) mmHg"}, {"measurement": "Systolic BP, Median", "setting": "[3]; 24 Hours", "result": 103.0, "unit": "mmHg"}, {"measurement": "Diastolic BP, Mean (SD)", "setting": "[3]; Baseline", "result": "54.6 (11.6) mmHg"}, {"measurement": "Diastolic BP, Median", "setting": "[3]; Baseline", "result": 55.5, "unit": "mmHg"}, {"measurement": "Systolic BP, Mean (SD)", "setting": "[3]; Baseline", "result": "94.4 (17.4) mmHg"}, {"measurement": "Systolic BP, Median", "setting": "[3]; Baseline", "result": 95.5, "unit": "mmHg"}]}]}
